Measurements taken from the supplement of paper PMC7840683.

System: HepaRG
Assay: LDH release cytotoxicity, % of total lysis control; higher = more cytotoxic
Details: 48 h
Procedure, shortened: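 Single-lot HepaRG cells in collagen I-coated 96-well plates were treated for 48 h in serum-free induction medium containing 0.5% DMSO with test chemicals in eight-point half-log series up to 100 µM. For total lysis, wells received 0.1% Triton X. LDH in 50 µL spent medium was assayed by resorufin fluorescence with CytoTox-ONE. Percent cytotoxicity was normalized to the on-plate vehicle and total lysis controls, with duplicates averaged.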

CC(C)(C)c1ccc(CSc2cnn(C(C)(C)C)c(=O)c2Cl)cc1 [Pyridaben]
Details	LDH release cytotoxicity [%]
0.03162 µM	-0.363
0.1 µM	-1.38
0.3162278 µM	-1.47
1 µM	-1.89
3.16228 µM	17.6
10 µM	26.6
31.6228 µM	26.9
100 µM	34.6

CC(C)N1C(=O)c2ccccc2NS1(=O)=O [Bentazone]
Details	LDH release cytotoxicity [%]
0.03162 µM	-0.772
0.1 µM	-0.547
0.3162278 µM	0.0696
1 µM	-0.283
3.16228 µM	-0.149
10 µM	0.303
31.6228 µM	-0.174
100 µM	2.45

Cc1c(C)c2c(c(C)c1O)CCC(C)(COc1ccc(CC3SC(=O)NC3=O)cc1)O2 (configuration not stated) [Troglitazone]
Details	LDH release cytotoxicity [%]
0.03162 µM	-0.878
0.1 µM	-0.342
0.3162278 µM	-1.04
1 µM	-0.379
3.16228 µM	-0.376
10 µM	-1.1
31.6228 µM	8.12
100 µM	62.4

CCCC(=NOCC)C1C(=O)CC(CC(C)SCC)CC1=O (configuration not stated) [Sethoxydim]
Details	LDH release cytotoxicity [%]
0.0317809 µM	-1.15
0.1005 µM	-1.26
0.317809 µM	-1.36
1.005 µM	-1.93
3.17809 µM	-1.21
10.05 µM	-0.579
31.7809 µM	-0.893
100.5 µM	0.566

CCOP(=O)(SC(C)CC)N1CCSC1=O (configuration not stated) [Fosthiazate]
Details	LDH release cytotoxicity [%]
0.03162 µM	-0.419
0.1 µM	-0.335
0.3162278 µM	-0.582
1 µM	-0.0276
3.16228 µM	-0.262
10 µM	-0.389
31.6228 µM	-0.432
100 µM	0.843

c1ccc2c(c1)oc1ccccc12 [Dibenzofuran]
Details	LDH release cytotoxicity [%]
0.03162 µM	-0.992
0.1 µM	-1.07
0.3162278 µM	-1.34
1 µM	-1.2
3.16228 µM	-1.19
10 µM	-0.829
31.6228 µM	-0.8185
100 µM	1.45

CCOC(=O)c1ccc(O)cc1 [Ethylparaben]
Details	LDH release cytotoxicity [%]
0.03162 µM	-0.474
0.1 µM	-1.24
0.3162278 µM	-1.05
1 µM	-1.23
3.16228 µM	-0.851
10 µM	-1.05
31.6228 µM	-0.271
100 µM	0.163

CCC(NC(=O)c1cc(F)ccc1NS(=O)(=O)c1cccc2cccnc12)c1ccccc1 (configuration not stated) [AVE3295]
Details	LDH release cytotoxicity [%]
0.0301998 µM	-1.81
0.0955 µM	-1.66
0.301997 µM	-1.7
0.955 µM	-1.55
3.01998 µM	-1.75
9.55 µM	-2.12
30.199752 µM	-1.2
95.5 µM	4.69

CC1(C)NC(=O)N(c2ccc([N+](=O)[O-])c(C(F)(F)F)c2)C1=O
Details	LDH release cytotoxicity [%]
0.03162 µM	-1.893
0.1 µM	-2.02
0.3162278 µM	-1.85
1 µM	-2.09
3.16228 µM	-2
10 µM	-1.72
31.6228 µM	-1.66
100 µM	-0.93

CC1C(c2ccc(Cl)cc2)SC(=O)N1C(=O)NC1CCCCC1 (configuration not stated) [Hexythiazox]
Details	LDH release cytotoxicity [%]
0.03162 µM	-0.985
0.1 µM	-2.1
0.3162278 µM	-1.93
1 µM	-1.79
3.16228 µM	-1.86
10 µM	-2.05
31.6228 µM	1.36
100 µM	6.86

CCN(CC)N=O [N-Nitrosodiethylamine]
Details	LDH release cytotoxicity [%]
0.03162 µM	-0.893
0.1 µM	-0.536
0.3162278 µM	-0.901
1 µM	-0.963
3.16228 µM	-0.649
10 µM	-1.08
31.6228 µM	0.447
100 µM	0.842

Fc1ccccc1C(F)COC1CCC(Nc2[nH]cnc3nncc2-3)CC1 (configuration not stated) [MK-968]
Details	LDH release cytotoxicity [%]
0.03162 µM	-1.09
0.1 µM	-1.55
0.3162278 µM	-2.19
1 µM	-2.2
3.16228 µM	-2.43
10 µM	-2.42
31.6228 µM	1.23
100 µM	10.8

Cc1ccc(N=C=O)cc1N=C=O [Toluene 2,4-diisocyanate]
Details	LDH release cytotoxicity [%]
0.03162 µM	-1.18
0.1 µM	-1.26
0.3162278 µM	-1.96
1 µM	-1.55
3.16228 µM	-1.52
10 µM	-0.759
31.6228 µM	4.408
100 µM	11.5

OCCOc1ccccc1 [2-Phenoxyethanol]
Details	LDH release cytotoxicity [%]
0.03162 µM	-0.138
0.1 µM	-0.772
0.3162278 µM	-1.12
1 µM	-1.13
3.16228 µM	-1.12
10 µM	-1.27
31.6228 µM	-0.22
100 µM	0.632
